Data: patent US8624037B2, “Imidazolidine-2,4-dione derivatives and use thereof as a medicament” (Ipsen Pharma S.A.S., priority 2009, dated 2014)

What was measured:
[1] = target: T1, androgen receptor (Homo sapiens, UniProt P10275, T878A); format: cell-based; conditions: LNCaP cells, 72 hours after treatment, western blot, FIGS. 2 to 10
T1 construct: primary antibody directed against the androgen receptor (AR441, sc-7305, Santa Cruz); host or cells: LNCaP
Procedure: The cells of the LNCaP line are seeded at a rate of 2.5 millions of cells per 10 cm Petri dish in RPMI, 10% of foetal calf serum, 2 mM of glutamine, 100 U/ml of penicillin, 0.1 mg/ml of streptomycin and 0.01M HEPES, 1 mM of sodium pyruvate, […]. 4 days later, the cells are treated with the compound to be tested. 72 hours after the treatment the cells are lyzed in lysis buffer (50 mM Tris pH 7.4, 150 mM NaCl, 1 mM EDTA, 20 mM NaF, 100 mM Na2VO3, 0.5% of NP40, 1% of Triton X-100, 1 mM EGTA, Pefabloc, protease inhibitor cocktail 11836170001 RocheDiagnostics, Phosphatase inhibitor cocktail set II Calbiochem). The cells are then scrapped and the lysate transferred into QIAshredder tubes (cat No. 79656 Qiagen) for centrifugation at 13,000 rpm for 15 min at 4° C. The supernatant is transferred into QIAshredder tubes for a second centrifugation at 13,000 rpm for 5 min in order to completely eliminate the DNA filaments. The protein concentration is then determined (Bio-Rad DC protein assay kit) and adjusted so as to load the same quantity of proteins per well (10 and 20 per well depending on the experiments). The loading buffer (sample loading buffer 3×ref 7722 Cell signaling technology) with added 1% beta-mercaptoethanol and 50 mM DTT, is added to the samples which are then heated for 10 min at 90° C. The samples are deposited under a volume of 20 μl on NuPAGE 4-12% Bis-Tris gels (cat No. NP0322BOX, Invitrogen). The migration takes place in MOPS buffer (Invitrogen) and is carried out for 1 hour at 180V. The proteins are transferred onto a nitrocellulose membrane (Hybond ECL RPN78D, GE Healthcare) under semi-dry conditions, in the presence of transfer buffer (NP0006-1, Invitrogen) over 45 min at 15V. The membrane is then blocked for 1 hour in blocking buffer (Non-fat dry milk, cat 170-6404, Biorad) at 5% in Tris Buffer saline (TBS) 0.1% Tween 20. Then it is incubated at 4° C. overnight in the presence of primary antibody directed against the androgen receptor (AR441, sc-7305, Santa Cruz) diluted to 1/2000th in blocking buffer as well as in the presence of primary antibody directed against GAPDH (Cat.MAB374, Millipore) diluted to 1/20,000th in blocking buffer (monitoring of protein load). The membrane is then washed 3 times in washing buffer (TBS, 0.1% Tween 20). The membrane is then incubated in the presence of secondary anti-immunoglobulin mouse antibody coupled with HRP (Goat anti-mouse IgG-HRP, sc 2031, Santa Cruz) diluted to 1/5000th in blocking buffer. The membrane is then washed 3 times in washing buffer.

[2] = tested on: LNCaP cells; conditions: medium depleted in steroids; stated 'as described previously' (Veldscholte 1992); cited from earlier work
[3] = tested on: LNCaP cells; assay: Pro- and/or anti-proliferative activity on LNCaP in medium depleted in steroids (WST-1); format: cell-based; conditions: FIG. 1
Procedure: 2. Antiproliferative Activity on LNCaP in a Medium Depleted in Steroids:
The pro- and/or anti-proliferative activity of the compounds of the present invention is determined on LNCaP in medium depleted in steroids.
The LNCaP (ATCC, 1740) line originates from a carcinoma of the prostate expressing the androgen receptor, it is hormone-dependent.
The maintenance of the LNCaP line is carried out under the usual conditions in RPMI, 10% of foetal calf serum, 2 mM of glutamine, 100 U/ml of penicillin, 0.1 mg/ml of streptomycin and 0.01M HEPES, 1 mM sodium pyruvate, 40% of D-glucose.
For the study under conditions without steroids, 24 hours before the seeding the culture medium of the cells is eliminated. […]
The LNCaP line is seeded at 20,000 cells/well in 90 μl of RPMI medium with 10% foetal calf serum depleted in steroids in 96-well plates coated with poly-D-lysine (Biocoat, Costar). • Treatment of the cells: 24 h after seeding, the cells are treated with 10 μl/well of compound diluted in the culture medium. […] The cells are incubated for 144 h at 37° C., 5% CO2. • Reading: After incubation for 6 days, 10 μL of cell proliferation reagent WST-1 (Roche ref 1644807) is added to each well. […]

[4] = tested on: LNCaP cells; assay: Anti-proliferative activity on LNCaP in complete medium (WST-1); format: cell-based; conditions: Homo sapiens, 144 h, 144 h incubation, WST-1 reading, read-out: IC50 on the LNCaP cells in culture (concentration inhibiting the cell proliferation by 50%)
Procedure: 1. Anti-Proliferative Activity on LNCaP in Complete Medium
The anti-proliferative activity of the compounds of the present invention is determined on LNCaP in complete medium by applying the following experimental procedure:
The LNCaP cell type (ATCC, 1740) originates from a prostate carcinoma expressing the androgen receptor, this line is hormone-dependent.
Maintenance of the LNCaP line is carried out in complete culture medium: RPMI, 10% of foetal calf serum, 2 mM glutamine, 100 U/ml penicillin, 0.1 mg/ml of streptomycin and 0.01M HEPES, 1 mM sodium pyruvate, 40% of D-glucose. • Seeding the plates:
The LNCaP line is seeded at 20,000 cells/well in […] of complete medium in 96-well plates coated with poly-D-lysine (Biocoat, Costar). • Treatment of the cells: 24 h after the seeding, the cells are treated with 10 μl/well of compound diluted in the culture medium. The concentrations used are the following: 1 nM/10/30/100/300/1000/3000/10,000/100,000 nM. The cells are incubated for 144 h at 37° C., 5% CO2. • Reading: After incubation for 6 days, 10 μL of the “WST-1 cell proliferation” reagent (Roche ref 1644807) is added to each well. After incubation for 2 hours at 37° C., 5% CO2, the absorbance at 450 nm is measured by spectrophotometry (Envision, Perkin Elmer). • Results: The experiments are carried out in duplicate and the best compounds are tested twice. A concentration value inhibiting the cell proliferation by 50% (IC50) is calculated.

T1 sequence (P10275 whole entry T878A): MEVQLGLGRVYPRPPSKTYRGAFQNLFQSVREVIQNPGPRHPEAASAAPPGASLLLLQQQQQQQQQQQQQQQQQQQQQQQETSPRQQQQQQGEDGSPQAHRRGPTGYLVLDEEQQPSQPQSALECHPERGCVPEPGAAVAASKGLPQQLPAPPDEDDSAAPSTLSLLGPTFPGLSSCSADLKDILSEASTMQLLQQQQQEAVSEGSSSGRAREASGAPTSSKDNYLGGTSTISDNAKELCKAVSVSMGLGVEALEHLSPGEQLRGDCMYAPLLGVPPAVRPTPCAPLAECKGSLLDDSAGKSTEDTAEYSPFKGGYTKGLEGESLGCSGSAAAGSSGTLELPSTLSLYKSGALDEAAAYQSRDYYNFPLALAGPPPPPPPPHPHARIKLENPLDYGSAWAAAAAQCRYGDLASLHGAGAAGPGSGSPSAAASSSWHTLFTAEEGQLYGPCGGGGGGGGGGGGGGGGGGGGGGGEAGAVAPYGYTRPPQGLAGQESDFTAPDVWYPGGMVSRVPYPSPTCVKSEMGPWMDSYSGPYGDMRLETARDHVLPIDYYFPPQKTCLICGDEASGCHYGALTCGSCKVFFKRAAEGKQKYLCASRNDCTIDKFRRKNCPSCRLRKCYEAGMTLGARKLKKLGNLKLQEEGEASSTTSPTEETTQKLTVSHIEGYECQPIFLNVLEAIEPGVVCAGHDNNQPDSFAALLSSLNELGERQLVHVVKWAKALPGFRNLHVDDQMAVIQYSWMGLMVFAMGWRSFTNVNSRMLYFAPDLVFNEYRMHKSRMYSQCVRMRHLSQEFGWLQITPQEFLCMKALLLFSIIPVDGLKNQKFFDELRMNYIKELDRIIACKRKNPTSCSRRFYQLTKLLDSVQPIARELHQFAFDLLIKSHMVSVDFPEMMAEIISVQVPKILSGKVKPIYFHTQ

| Compound | effect on protein expression of the androgen receptor [1] | IC50 [4] [nM] | further results |
| --- | --- | --- | --- |
| Cc1cc(N2C(=O)N(CCCCCN3C(=O)N(c4ccc(C#N)c(C)c4)C(=O)C3(C)C)C(C)(C)C2=O)ccc1C#N [Example 15, 4,4′-[pentane-1,5-diylbis(4,4-dimethyl-2,5-dioxoimidazolidine-3,1-diyl)]bis(2-methylbenzonitrile)] | reduce protein expression of the androgen receptor |  |  |
| CC1(C)NC(=O)N(c2ccc([N+](=O)[O-])c(C(F)(F)F)c2)C1=O [nilutamide] |  |  | agonist / inhibitory activity of nilutamide on LNCaP proliferation [2]: agonist activity at low concentrations, then an inhibitory activity at high concentrations |
| CC1(C)C(=O)N(c2ccc([N+](=O)[O-])c(C(F)(F)F)c2)C(=O)N1C/C=C\CN1C(=O)N(c2ccc([N+](=O)[O-])c(C(F)(F)F)c2)C(=O)C1(C)C [Example 19, 1,1′-(2Z)-but-2-ene-1,4-diylbis{5,5-dimethyl-3-[4-nitro-3-(trifluoromethyl)phenyl]imidazolidine-2,4-dione}] | reduce protein expression of the androgen receptor |  | inhibitory activity on cell proliferation of LNCaP cultured in medium depleted in steroids [3]: visible inhibitory activity at low concentrations |
| CC1(C)C(=O)N(c2ccc(C#N)c(C(F)(F)F)c2)C(=O)N1C/C=C\CN1C(=O)N(c2ccc(C#N)c(C(F)(F)F)c2)C(=O)C1(C)C [Example 21, 4,4′-[(2Z)-but-2-ene-1,4-diylbis(4,4-dimethyl-2,5-dioxoimidazolidine-3,1-diyl)]bis[2-(trifluoromethyl)benzonitrile]] | reduce protein expression of the androgen receptor |  |  |
| CC1(C)C(=O)N(c2ccc([N+](=O)[O-])c(C(F)(F)F)c2)C(=O)N1CCCCCN1C(=O)N(c2ccc([N+](=O)[O-])c(C(F)(F)F)c2)C(=O)C1(C)C [Example 2, 1,1′-pentane-1,5-diylbis{5,5-dimethyl-3-[4-nitro-3-(trifluoromethyl)phenyl]imidazolidine-2,4-dione}] | reduce protein expression of the androgen receptor |  | inhibitory activity on cell proliferation of LNCaP cultured in medium depleted in steroids [3]: visible inhibitory activity at low concentrations |
| CC1(C)C(=O)N(c2ccc([N+](=O)[O-])c(C(F)(F)F)c2)C(=O)N1CCCCCCCN1C(=O)N(c2ccc([N+](=O)[O-])c(C(F)(F)F)c2)C(=O)C1(C)C [Example 4, 1,1′-heptane-1,7-diylbis{5,5-dimethyl-3-[4-nitro-3-(trifluoromethyl)phenyl]imidazolidine-2,4-dione}] |  | < 1500 |  |
| CC1(C)C(=O)N(c2ccc(C#N)c(C(F)(F)F)c2)C(=O)N1C[C@@H]1O[C@@H]1CN1C(=O)N(c2ccc(C#N)c(C(F)(F)F)c2)C(=O)C1(C)C [Example 22, 4,4′-{(2R,3S)-oxirane-2,3-diylbis[methanediyl(4,4-dimethyl-2,5-dioxoimidazolidine-3,1-diyl)]}bis[2-(trifluoromethyl)benzonitrile]] | reduce protein expression of the androgen receptor |  |  |
| Cc1cc(N2C(=O)N(CCCCCN3C(=O)N(c4ccc([N+](=O)[O-])c(C)c4)C(=O)C3(C)C)C(C)(C)C2=O)ccc1[N+](=O)[O-] [Example 10, 1,1′-pentane-1,5-diylbis[5,5-dimethyl-3-(3-methyl-4-nitrophenyl)imidazolidine-2,4-dione]] | reduce protein expression of the androgen receptor | < 1500 |  |
| COc1cc(N2C(=O)N(CCCCCN3C(=O)N(c4ccc([N+](=O)[O-])c(OC)c4)C(=O)C3(C)C)C(C)(C)C2=O)ccc1[N+](=O)[O-] [Example 13, 1,1′-pentane-1,5-diylbis[3-(3-methoxy-4-nitrophenyl)-5,5-dimethyl-imidazolidine-2,4-dione]] |  | < 1500 |  |
| COC(=O)Nc1ccc(N2C(=O)N(CCCCCN3C(=O)N(c4ccc(NC(=O)OC)c(C)c4)C(=O)C3(C)C)C(C)(C)C2=O)cc1C [Example 14, dimethyl{pentane-1,5-diylbis[(4,4-dimethyl-2,5-dioxoimidazolidine-3,1-diyl)(2-methyl-4,1-phenylene)]}biscarbamate] |  | < 1500 |  |
| CC1(C)C(=O)N(c2ccc(C#N)c(Cl)c2)C(=O)N1CCCCCN1C(=O)N(c2ccc(C#N)c(Cl)c2)C(=O)C1(C)C [Example 16, 4,4′-[pentane-1,5-diylbis(4,4-dimethyl-2,5-dioxoimidazolidine-3,1-diyl)]bis(2-chlorobenzonitrile)] | reduce protein expression of the androgen receptor | < 1500 |  |
| CC1(C)C(=O)N(c2ccc([N+](=O)[O-])c(C(F)(F)F)c2)C(=O)N1CCOCCN1C(=O)N(c2ccc([N+](=O)[O-])c(C(F)(F)F)c2)C(=O)C1(C)C [Example 7, 1,1′-(oxydiethane-2,1-diyl)bis{5,5-dimethyl-3-[4-nitro-3-(trifluoromethyl)-phenyl]imidazolidine-2,4-dione}] | reduce protein expression of the androgen receptor |  |  |
